Patent publication US6407091B1, “β-lactamase inhibiting compounds” (Research Corporation Technologies, Inc., priority 1999, dated 2002)
Structures can show the parent of a compound that is named as a salt. Where two headings read alike, the source gives them in different places.

What was measured:
TEM-1, a penicillinase = TEM-1, a penicillinase (Escherichia coli, UniProt P62593); experiment: IC50 for inhibition of TEM-1 β-lactamase (nitrocefin hydrolysis); format: biochemical; details: read-out: IC50 Values for Inhibition of β-lactamase Derived from TEM-1
Description: (§1) Representative compounds of formula I were evaluated as inhibitors of the Class C β-lactamase of Enterobacter cloacae P-99, a cephalosporinase, and TEM-1, a penicillinase, by relative IC50 analysis. The IC50 value represents the concentration of inhibitor required to effect a 50% loss of activity of free enzyme. The IC50 value of each compound was determined as follows. Following a 10 minute incubation of a dilute solution of enzyme (2.56 nM) and inhibitor (<0.64 mM), a […] of this incubation mixture was then further diluted into 1 mL nitrocefin solution, and the rate of hydrolysis was measured during a 1 minute period by monitoring the absorbance of nitrocefin as a function of time.

[1] = molecular target: Class C β-lactamase of Enterobacter cloacae P-99 (Enterobacter cloacae, UniProt P05364); experiment: IC50 for inhibition of Class C β-lactamase of Enterobacter cloacae P-99 (nitrocefin hydrolysis); format: biochemical
Description: as §1

[2] = Table 2, compounds of formula IV, procedure similar to Table 1
[3] = Table 2, compounds of formula IV, procedure similar to Table 1, read-out: IC50 Values for Inhibition of β-lactamase Derived from P-99
[4] = Table 1, 10 minute incubation of enzyme (2.56 nM) and inhibitor, nitrocefin hydrolysis, relative to tazobactam standard
[5] = Table 1, 10 minute incubation of enzyme (2.56 nM) and inhibitor, nitrocefin hydrolysis, relative to tazobactam standard, read-out: IC50 Values for Inhibition of β-lactamase Derived from P-99
[6] = read-out: IC50 Values for Inhibition of β-lactamase Derived from P-99

Class C β-lactamase of Enterobacter cloacae P-99, sequence (P05364 21-381): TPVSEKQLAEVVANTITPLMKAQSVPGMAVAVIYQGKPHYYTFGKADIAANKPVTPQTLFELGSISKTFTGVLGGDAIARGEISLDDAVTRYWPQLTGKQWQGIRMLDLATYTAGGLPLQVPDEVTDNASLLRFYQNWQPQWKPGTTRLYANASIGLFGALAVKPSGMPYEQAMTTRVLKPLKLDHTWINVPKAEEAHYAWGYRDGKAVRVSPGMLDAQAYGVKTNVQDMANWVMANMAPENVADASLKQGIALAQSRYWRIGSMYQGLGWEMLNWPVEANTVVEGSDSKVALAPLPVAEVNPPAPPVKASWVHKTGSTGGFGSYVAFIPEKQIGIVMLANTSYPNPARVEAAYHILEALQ
TEM-1, a penicillinase, sequence (P62593 24-286 limits assumed): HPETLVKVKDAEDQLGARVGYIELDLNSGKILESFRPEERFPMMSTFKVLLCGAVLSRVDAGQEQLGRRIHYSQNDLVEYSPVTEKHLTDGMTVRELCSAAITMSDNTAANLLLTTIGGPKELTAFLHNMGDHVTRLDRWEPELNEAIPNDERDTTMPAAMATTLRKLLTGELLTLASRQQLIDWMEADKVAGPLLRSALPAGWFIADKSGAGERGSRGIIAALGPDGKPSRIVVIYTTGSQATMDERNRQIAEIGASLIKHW

Compound: CC1=C(C(=O)O)N2C(=O)C(=CC(=O)OC(C)(C)C)C2S(=O)(=O)C1 (stereo not shown) [II: R1=CO2-t-Bu, R3=CH3, reference compound]
- IC50 (TEM-1, a penicillinase): 111 µM
- IC50 [1]: 199 µM

Compound: CC1=C(C(=O)O)N2C(=O)/C(=C/c3ccccn3)C2S(=O)(=O)C1 (stereo not shown) [II: R1=2-pyr, R3=CH3, reference compound]
- IC50 (TEM-1, a penicillinase): 377 µM
- IC50 [1]: 6.1 µM

Compound: O=C(O)/C=C/C1=C(C(=O)O)N2C(=O)/C(=C/c3ccccn3)C2S(=O)(=O)C1 (stereo not shown) [Compound 13g, Disodium 3-[2′E-Carboxyethenyl]-1,1-dioxo-7Z-[(2″-pyridyl)methylidene]-3-cephem-4-carboxylate]
- IC50 (TEM-1, a penicillinase; [2]): 2.52 µM
- IC50 [1, 3]: 0.31 µM

Compound: C=C1C(COC(C)=O)=C(C(=O)O)N2C(=O)/C(=C/C(=O)O)C2S1(=O)=O (stereo not shown) [Compound 6h, Disodium Salt of 7-[(Z)-(Carboxy)methylene]-2-(exomethylidene)-cephalosporinate Sulfone]
- IC50 (TEM-1, a penicillinase; [4]): 498 µM
- IC50 [1, 5]: 2.49 µM

Compound: N#CC1=C(C(=O)O)N2C(=O)/C(=C/c3ccccn3)C2S(=O)(=O)C1 (stereo not shown) [Compound 19, Sodium 1,1-Dioxo-3-cyano-7Z-[(2′-pyridyl)methylidene]-3-cephem-4-carboxylate]
- IC50 (TEM-1, a penicillinase; [2]): 2.34 µM
- IC50 [1]: 0.029 µM

Compound: O=C(O)C1=C(/C=C/c2cccc[n+]2[O-])CS(=O)(=O)C2/C(=C\c3ccccn3)C(=O)N12 (stereo not shown) [Compound 13c, Sodium 1,1-Dioxo-3-{2′E-[2″-(pyridin-N-oxide)ethenyl]}-7Z-[(2′″-pyridyl)methylidene]-3-cephem-4-carboxylate]
- IC50 (TEM-1, a penicillinase; [2]): 0.006 µM
- IC50 [1, 3]: 0.6 µM

Compound: CC(C)(C)OC(=O)/C=C/C1=C(C(=O)O)N2C(=O)/C(=C/c3ccccn3)C2S(=O)(=O)C1 (stereo not shown) [Compound 13e, Sodium 1,1-Dioxo-3-[2′E-(t-butoxycarbonylethenyl)]-7Z-[(2″-pyridyl)methylidene]-3-cephem-4-carboxylate]
- IC50 [1, 3]: 1.48 µM

Compound: C=C1C(C)=C(C(=O)O)N2C(=O)C(=CC(=O)OC(C)(C)C)C2S1(=O)=O (stereo not shown) [Compound 6d, Sodium Salt of 7-[(Z)-(tert-Butoxycarbonyl)methylene]-3′-desacetoxy-2(exomethylidene)cephalosporinate Sulfone]
- IC50 [1, 6]: 48.6 µM

Compound: Sodium [2-1(Bisthiomethyl)exomethylene]-7-[(Z)-(2″-pyridinyl)methylene]-3′-desacetoxycephalosporinate [Compound 6g]
- IC50 (TEM-1, a penicillinase; [4]): 173 µM
- IC50 [1, 5]: 0.51 µM

Compound: CC(=O)OCC1=C(C(=O)O)N2C(=O)C(=Cc3ccccn3)C2S(=O)(=O)C1 (stereo not shown) [II: R1=2-pyr, R3=CH2OAc, reference compound]
- IC50 (TEM-1, a penicillinase): 14.4 µM
- IC50 [1]: 1.35 µM

Compound: COC(=O)/C=C/C1=C(C(=O)O)N2C(=O)/C(=C/c3ccccn3)C2S(=O)(=O)C1 (stereo not shown) [Compound 13b, Sodium 1,1-Dioxo-3-[2′E-(methoxycarbonylethenyl)]-7Z-[(2″-pyridyl)methylidene]-3-cephem-4-carboxylate]
- IC50 (TEM-1, a penicillinase; [2]): 0.02 µM
- IC50 [1]: 0.2 µM

Compound: COC(=O)/C(Cl)=C/C1=C(C(=O)O)N2C(=O)/C(=C/c3ccccn3)C2S(=O)(=O)C1 (stereo not shown) [Compound 13f]
- IC50 (TEM-1, a penicillinase; [2]): 0.02 µM
- IC50 [1, 3]: 0.2 µM

Compound: C=C1C(C)=C(C(=O)O)N2C(=O)/C(=C/C(=O)O)C2S1(=O)=O (stereo not drawn) [Compound 6i, Disodium Salt 7-[(Z)(Carboxy)methylene]-3′-desacetoxy-2-(exo-methylidene)cephalosporinate Sulfone]
- IC50 (TEM-1, a penicillinase; [4]): 277 µM
- IC50 [1, 5]: 36.8 µM

Compound: C=C1C(C)=C(C(=O)O)N2C(=O)C(=Cc3ccccn3)C2S1(=O)=O (stereo not shown) [Compound 6c, Sodium Salt of 7-((Z)-(2″-Pyridinyl)methylene]-3′-desacetoxy-2-(exomethylidene)cephalosporinate Sulfone]
- IC50 [1, 6]: 0.039 µM

Compound: C=C1C(CSc2nnnn2C)=C(C(=O)O)N2C(=O)C(=CC(=O)OC(C)(C)C)C2S1(=O)=O (stereo not shown) [Compound 6f, Sodium Salt of Benzhydryl 7-[(Z)-(tert-Butylcarboxy)methylene]-3′-desacetoxy-2-exomethylidene-3′-[1″-methyl-1″H-tetrazol-5″-yl)thio]cephalosporinate Sulfone]
- IC50 [1, 6]: 2.38 µM

Compound: C=C1C(=O)N2C(C(=O)O)=C(COC(C)=O)C(=C)S(=O)(=O)C12 (stereo not shown) [III: R3=CH2OAc, reference compound]
- IC50 (TEM-1, a penicillinase): > 2000 µM
- IC50 [1]: 315 µM

Compound: C=C1C(COC(C)=O)=C(C(=O)O)N2C(=O)C(=CC(=O)OC(C)(C)C)C2S1(=O)=O (stereo not shown) [Compound 6b, Sodium Salt of 7-[(Z)-(tert-Butoxycarbonyl)methylene]-2-(exomethylidene)cephalosporinate Sulfone]
- IC50 [1, 6]: 1.55 µM

Compound: N#C/C=C/C1=C(C(=O)O)N2C(=O)/C(=C/c3ccccn3)C2S(=O)(=O)C1 (stereo not shown) [Compound 13a, Sodium 3-[2′E-(Cyanoethenyl)]-1,1-dioxo-7Z-[(2″-pyridyl)methylidene]-3-cephem-4-carboxylate]
- IC50 (TEM-1, a penicillinase; [2]): 2.7 µM
- IC50 [1]: 0.01 µM

Compound: Cn1nnnc1SCC1=C(C(=O)O)N2C(=O)C(=CC(=O)OC(C)(C)C)C2S(=O)(=O)C1 (stereo not shown) [II: R1=CO2-t-Bu, R3=CH2S(C2N4H3), reference compound]
- IC50 (TEM-1, a penicillinase): 0.123 µM
- IC50 [1]: 112 µM

Compound: C=C1C(COC(C)=O)=C(C(=O)O)N2C(=O)C(=Cc3ccccn3)C2S1(=O)=O (stereo not shown) [Compound 6a, Sodium Salt of 7-[(Z)-(2′-Pyridyl)methylene]-2-(exomethylidene)cephalosporanic Acid Sulfone]
- IC50 [1]: 0.165 µM
